Measurements reported in patent US8841312B2, “Fused pyridine, pyrimidine and triazine compounds as cell cycle inhibitors” (Amgen Inc., priority 2007, dated 2014).

Assays:
Cdk4/CyclinD1 = Cdk4/CyclinD1 (Homo sapiens (Human), UniProt P11802); assay: Cdk4 kinase inhibition assay with recombinant Cdk4/CyclinD1, Rb substrate, [33P]-ATP filter plate; type: biochemical; settings: 25 μM ATP, read-out: Cdk 4 IC50
Procedure, shortened: (§1)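 Recombinant Cdk4/CyclinD1 or Cdk6/CyclinD3 phosphorylated Rb protein with [33P]-ATP for 1 h at room temperature. Protein was TCA-precipitated on filter plates and bound radioactivity counted. IC50 by nonlinear regression.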

Cdk6/CyclinD3 = Cdk6/CyclinD3 (Homo sapiens (Human), UniProt Q00534); assay: Cdk6 kinase inhibition assay with recombinant Cdk6/CyclinD3, Rb substrate, [33P]-ATP filter plate; type: biochemical; settings: 25 μM ATP, read-out: Cdk 6 IC50
Procedure, shortened: as §1

Sequence of Cdk6/CyclinD3 (Q00534 whole entry): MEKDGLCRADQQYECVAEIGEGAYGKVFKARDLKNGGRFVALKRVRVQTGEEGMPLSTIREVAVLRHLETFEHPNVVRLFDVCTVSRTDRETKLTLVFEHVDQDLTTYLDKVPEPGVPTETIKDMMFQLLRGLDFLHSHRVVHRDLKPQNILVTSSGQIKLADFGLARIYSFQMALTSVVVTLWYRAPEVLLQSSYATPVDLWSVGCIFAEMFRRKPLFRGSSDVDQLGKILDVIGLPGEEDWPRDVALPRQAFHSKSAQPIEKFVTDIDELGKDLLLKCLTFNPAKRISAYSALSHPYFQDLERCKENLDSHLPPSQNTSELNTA
Sequence of Cdk6/CyclinD3 (P30281 whole entry partner): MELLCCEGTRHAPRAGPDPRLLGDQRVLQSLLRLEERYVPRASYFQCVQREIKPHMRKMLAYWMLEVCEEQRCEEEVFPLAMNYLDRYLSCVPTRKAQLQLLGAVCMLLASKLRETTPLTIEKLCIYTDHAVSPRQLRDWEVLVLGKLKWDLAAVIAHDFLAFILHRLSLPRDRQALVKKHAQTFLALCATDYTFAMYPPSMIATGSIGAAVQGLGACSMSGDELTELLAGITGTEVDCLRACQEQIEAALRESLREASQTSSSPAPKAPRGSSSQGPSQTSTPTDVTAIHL
Sequence of Cdk4/CyclinD1 (P11802 whole entry): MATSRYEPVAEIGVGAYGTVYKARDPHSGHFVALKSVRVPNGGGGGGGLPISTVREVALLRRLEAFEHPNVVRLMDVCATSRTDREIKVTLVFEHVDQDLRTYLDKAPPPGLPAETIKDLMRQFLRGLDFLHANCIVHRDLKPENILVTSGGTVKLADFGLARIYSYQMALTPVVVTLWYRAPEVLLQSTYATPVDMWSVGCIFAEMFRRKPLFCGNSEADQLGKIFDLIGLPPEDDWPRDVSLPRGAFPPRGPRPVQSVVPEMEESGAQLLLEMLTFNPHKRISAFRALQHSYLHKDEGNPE
Sequence of Cdk4/CyclinD1 (P24385 whole entry partner): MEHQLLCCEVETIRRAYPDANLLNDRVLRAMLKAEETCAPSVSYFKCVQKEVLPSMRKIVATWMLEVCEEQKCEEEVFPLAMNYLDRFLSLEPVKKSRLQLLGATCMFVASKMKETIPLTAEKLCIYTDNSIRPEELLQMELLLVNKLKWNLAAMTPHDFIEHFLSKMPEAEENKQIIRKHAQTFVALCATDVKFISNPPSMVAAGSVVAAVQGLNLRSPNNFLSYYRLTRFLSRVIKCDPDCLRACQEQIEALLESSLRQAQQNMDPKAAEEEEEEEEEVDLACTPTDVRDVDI

Row | Compound | IC50 (Cdk4/CyclinD1) [µM] | IC50 (Cdk6/CyclinD3) [µM]
1 | COc1ccc(-c2ccc(Nc3ncc4c5ccncc5n(C5CCCC5)c4n3)nn2)cn1 [Example 261, 9-Cyclopentyl-N-(6-(6-methoxy-3-pyridinyl)-3-pyridazinyl)-9H-pyrido[4′,3′:4,5]pyrrolo[2,3-d]pyrimidin-2-amine] | 0.233 | 0.36
2 | COc1cc(-c2ccc(Nc3ncc4c5ccncc5n(C5CCCC5)c4n3)nn2)ccn1 [Example 262, 9-Cyclopentyl-N-(6-(2-methoxy-4-pyridinyl)-3-pyridazinyl)-9H-pyrido[4′,3′:4,5]pyrrolo[2,3-d]pyrimidin-2-amine] | 0.032 | 0.038
3 | Oc1cc(-c2ccc(Nc3ncc4c5ccncc5n(C5CCCC5)c4n3)nn2)ccn1 [Example 264, 4-(6-((9-cyclopentyl-9H-pyrido[4′,3′:4,5]pyrrolo[2,3-d]pyrimidin-2-yl)amino)-3-pyridazinyl)-2-pyridinol] | 0.0093 | 0.0166
4 | Oc1ccc(-c2ccc(Nc3ncc4c5ccncc5n(C5CCCC5)c4n3)nn2)cn1 [Example 266, 5-(6-((9-Cyclopentyl-9H-pyrido[4′,3′:4,5]pyrrolo[2,3-d]pyrimidin-2-yl)amino)-3-pyridazinyl)-2-pyridinol] | 0.0031 | 0.0065
5 | O=S1(=O)CCC(c2ccc(Nc3ncc4c5ccncc5n(C5CCCC5)c4n3)nc2)CC1 [Example 270, 9-Cyclopentyl-N-(5-(1,1-dioxidotetrahydro-2H-thiopyran-4-yl)-2-pyridinyl)-9H-pyrido[4′,3′:4,5]pyrrolo[2,3-d]pyrimidin-2-amine] | 0.04 | 0.035
6 | O=S1(=O)CC=C(c2ccc(Nc3ncc4c5ccnc(F)c5n(C5CCCC5)c4n3)nc2)CC1 [Example 271, 9-Cyclopentyl-N-(5-(1,1-dioxido-3,6-dihydro-2H-thiopyran-4-yl)-2-pyridinyl)-8-fluoro-9H-pyrido[4′,3′:4,5]pyrrolo[2,3-d]pyrimidin-2-amine] | 0.016 | 0.016
7 | NC1[C@H]2CN(c3ccc(Nc4ncc5c6ccncc6n(C6CCCC6)c5n4)nn3)C[C@@H]12 (stereo partly drawn) [Example 272, N-(6-((1R,5S)-6-amino-3-azabicyclo[310]hex-3-yl)-3-pyridazinyl)-9-cyclopentyl-9H-pyrido[4′,3′:4,5]pyrrolo[2,3-d]pyrimidin-2-amine] | 0.027 | 0.101
8 | CN(C)[C@H]1CCN(c2ccc(Nc3ncc4c5ccncc5n(C5CCCC5)c4n3)nc2)C1 [Example 288] | 0.014 | 0.04
9 | CN(C)[C@@H]1CCN(c2ccc(Nc3ncc4c5ccncc5n(C5CCCC5)c4n3)nc2)C1 [Example 289] | 0.0072 | 0.04
10 | CN(C)CCCN(C)c1ccc(Nc2ncc3c4ccncc4n(C4CCCC4)c3n2)nn1 [Example 290] | 0.035 | 0.085
11 | OCCNc1ccc(Nc2ncc3c4ccncc4n(C4CCCC4)c3n2)nn1 [Example 292] | 0.0049 | 0.0161
12 | C[C@@H](O)CNc1ccc(Nc2ncc3c4ccncc4n(C4CCCC4)c3n2)nn1 [Example 293] | 0.0046 | 0.016
13 | C[C@H](O)CNc1ccc(Nc2ncc3c4ccncc4n(C4CCCC4)c3n2)nn1 [Example 294] | 0.0059 | 0.026
14 | C[C@H](CO)Nc1ccc(Nc2ncc3c4ccncc4n(C4CCCC4)c3n2)nn1 [Example 295] | 0.0068 | 0.0337
15 | C[C@@H](CO)Nc1ccc(Nc2ncc3c4ccncc4n(C4CCCC4)c3n2)nn1 [Example 296] | 0.0055 | 0.014
16 | OCCCNc1ccc(Nc2ncc3c4ccncc4n(C4CCCC4)c3n2)nn1 [Example 297] | 0.0014 | 0.013
17 | CN1CCN(c2ccc(Nc3ncc4c5ccccc5n(C5CCCC5)c4n3)nc2)CC1 [Example 298] | 0.04 | 0.008
18 | CC1(C)CN(c2ccc(Nc3ncc4c5ccccc5n(C5CCCC5)c4n3)nn2)CCN1 [Example 299] | 0.06 | 0.034
19 | CN(C)C1CCN(c2ccc(Nc3ncc4c5ccccc5n(C5CCCC5)c4n3)nn2)CC1 [Example 300] | 0.022 | 0.048
20 | CN1CCN(c2ccc(Nc3ncc4c5ccccc5n(C5CCCC5)c4n3)nn2)CC1 [Example 301] | 0.031 | 0.022
21 | C[C@H]1CN(c2ccc(Nc3ncc4c5ccccc5n(C5CCCC5)c4n3)nn2)CCN1 [Example 302] | 0.047 | 0.023
22 | CC1CN(c2ccc(Nc3ncc4c5ccccc5n(C5CCCC5)c4n3)nc2)CC(C)N1 (centres unmarked) [Example 303] | 0.031 | 0.03
23 | O[C@@H]1CCN(c2ccc(Nc3ncc4c5ccccc5n(C5CCCC5)c4n3)nc2)C1 [Example 304] | 0.046 | 0.027
24 | O[C@H]1CCN(c2ccc(Nc3ncc4c5ccccc5n(C5CCCC5)c4n3)nc2)C1 [Example 305] | 0.149 | 0.111
25 | CC1CN(c2ccc(Nc3ncc4c5ccccc5n(C5CCCC5)c4n3)nn2)CC(C)N1 (centres unmarked) [Example 306] | 0.013 | 0.039
26 | C[C@H]1CN(c2ccc(Nc3ncc4c5ccncc5n(C5CCC5)c4n3)nc2)CCN1 [Example 344] | 0.016 | 0.01

Other lines, results leading:

Row | IC50 (Cdk4/CyclinD1) [µM] | IC50 (Cdk6/CyclinD3) [µM] | Compound
27 | 0.011 | 0.0088 | c1ccc2c(c1)c1cnc(Nc3ccc(N4CCNCC4)nn3)nc1n2C1CCCC1 [Example 307]
28 | 0.011 | 0.008 | NC1CCN(c2ccc(Nc3ncc4c5ccccc5n(C5CCCC5)c4n3)nn2)CC1 [Example 308]
29 | 0.011 | 0.012 | CN(C)C1CCN(c2ccc(Nc3ncc4c5ccccc5n(C5CCCC5)c4n3)nc2)CC1 [Example 309]
30 | 0.005 | 0.013 | CNC1CCN(c2ccc(Nc3ncc4c5ccnc(F)c5n(C5CCCC5)c4n3)nc2)CC1 [Example 310]
31 | 0.0086 | 0.024 | O[C@H]1CCN(c2ccc(Nc3ncc4c5ccnc(F)c5n(C5CCCC5)c4n3)nn2)C1 [Example 311]
32 | 0.37 | 0.79 | COCCn1c2cnccc2c2cnc(Nc3ccc(N4CCNCC4)cn3)nc21 [Example 312]
33 | 0.34 | 0.4 | COCCn1c2cnccc2c2cnc(Nc3ccc(N4CCNCC4)nn3)nc21 [Example 313]
34 | 0.38 | 1.5 | COCCn1c2cnccc2c2cnc(Nc3ccc(N4CCC(N(C)C)CC4)cn3)nc21 [Example 314]
35 | 0.036 | 0.059 | CC[C@@H](C)n1c2cnccc2c2cnc(Nc3ccc(N4CCC(N(C)C)CC4)nn3)nc21 [Example 316]
36 | 0.012 | 0.021 | CC[C@@H](C)n1c2cnccc2c2cnc(Nc3ccc(N4CCN[C@@H](C)C4)nn3)nc21 [Example 317]
37 | 0.0029 | 0.027 | CC[C@@H](C)n1c2cnccc2c2cnc(Nc3ccc(N4CCC(NC)CC4)nn3)nc21 [Example 318]
38 | 0.022 | 0.049 | CC[C@@H](C)n1c2cnccc2c2cnc(Nc3ccc(N4CC[C@@H](O)C4)nn3)nc21 [Example 319]
39 | 0.0036 | 0.011 | CC[C@@H](C)n1c2cnccc2c2cnc(Nc3ccc(N4CCNCC4)cn3)nc21 [Example 320]
40 | 0.007 | 0.011 | CC[C@@H](C)n1c2cnccc2c2cnc(Nc3ccc(N4CCN[C@@H](C)C4)cn3)nc21 [Example 321]
41 | 0.015 | 0.05 | CC[C@@H](C)n1c2cnccc2c2cnc(Nc3ccc(N4CC[C@@H](O)C4)cn3)nc21 [Example 322]
42 | 0.0096 | 0.023 | CC[C@@H](C)n1c2cnccc2c2cnc(Nc3ccc(N4CCNCC4)nn3)nc21 [Example 323]

Row | IC50 (Cdk4/CyclinD1) [µM] | IC50 (Cdk6/CyclinD3) [µM] | Compound
43 | 0.011 | 0.02 | CC[C@@H](C)n1c2cnccc2c2cnc(Nc3ccc(N4CCNC(C)(C)C4)nn3)nc21 [Example 324]
44 | 0.011 | 0.042 | CC[C@@H](C)n1c2cnccc2c2cnc(Nc3ccc(N4CCC(NC)CC4)cn3)nc21 [Example 325]
45 | 0.021 | 0.016 | CN(C)C1CCN(c2ccc(Nc3ncc4c5ccncc5n(C5CCC5)c4n3)nc2)CC1 [Example 341]
46 | 0.087 | 0.077 | CC[C@@H](C)n1c2cnccc2c2cnc(Nc3ccc(N4CCNC(C)(C)C4)cn3)nc21 [Example 342]
47 | 0.044 | 0.028 | CC1(C)CN(c2ccc(Nc3ncc4c5ccncc5n(C5CCC5)c4n3)nc2)CCN1 [Example 343]
48 | 0.021 | 0.015 | CNC1CCN(c2ccc(Nc3ncc4c5ccncc5n(C5CCC5)c4n3)nc2)CC1 [Example 345]
49 | 0.054 | 0.016 | c1cc2c3cnc(Nc4ccc(N5CCNCC5)nn4)nc3n(C3CCC3)c2cn1 [Example 346]
50 | 0.027 | 0.027 | CN(C)C1CCN(c2ccc(Nc3ncc4c5ccncc5n(C5CCC5)c4n3)nn2)CC1 [Example 347]
51 | 0.017 | 0.012 | CC1(C)CN(c2ccc(Nc3ncc4c5ccncc5n(C5CCC5)c4n3)nn2)CCN1 [Example 348]
52 | 0.144 | 0.34 | CN(C)C1CCN(c2ccc(Nc3ncc4c5ccncc5n([C@@H]5CCNC5)c4n3)nc2)CC1 [Example 349]
53 | 0.074 | 0.102 | CN(C)C1CCN(c2ccc(Nc3ncc4c5ccncc5n(CCCO)c4n3)nc2)CC1 [Example 350]
54 | 0.08 | 0.176 | C[C@H]1CN(c2ccc(Nc3ncc4c5ccncc5n(CCCO)c4n3)nc2)CCN1 [Example 351]
55 | 0.146 | 0.053 | OCCCn1c2cnccc2c2cnc(Nc3ccc(N4CCNCC4)nn3)nc21 [Example 352]
56 | 0.09 | 0.103 | OCCCn1c2cnccc2c2cnc(Nc3ccc(N4CC[C@@H](O)C4)nn3)nc21 [Example 353]
57 | 0.58 | 0.83 | CN(C)C1CCN(c2ccc(Nc3ncc4c5ccncc5n([C@H]5CCC[C@H]5O)c4n3)nc2)CC1 [Example 354]
58 | 0.177 | 0.275 | CN(C)C1CCN(c2ccc(Nc3ncc4c5ccncc5n([C@H]5CCC[C@H]5O)c4n3)nn2)CC1 [Example 355]
